{"source": "ChEMBL document CHEMBL5375988", "about": "“AcGlcAs: A Novel P53-Targeting Arsenical with Potent Cellular Uptake and Cancer Cell Selectivity” (J Med Chem, 2023)", "key": {"U-937 [1]": {"system": "U-937", "test": "Induction of cell cycle arrest in human U-937 cells overexpressing p53-V272M mutant assessed as upregulation of p21 encoding CDKN1A gene expression by RT-qPCR analysis", "assay_type": "functional, cell-based"}, "U-937 [2]": {"system": "U-937", "test": "Induction of extrinsic apoptosis in human U-937 cells overexpressing p53-V272M mutant assessed as upregulation of PERP gene expression by RT-qPCR analysis", "assay_type": "functional, cell-based"}, "[3]": {"system": "Cellular tumor antigen p53 (Homo sapiens), P04637 [V272M]", "test": "Rescue of p53-V272M mutant transcriptional activity on PUMA promoter in human NCI-H1299 cells assessed as fold change in transcriptional activity at 10 uM pretreated for 10 mins to1 hr followed by replacement with fresh culture media and measured after 24 hrs by firefly/renilla based luciferase reporter assay", "assay_type": "cell-based", "conditions": "filed as activator, time 10-60 min"}, "HL-60": {"system": "HL-60", "test": "Upregulation of MDM2 protein expression in human HL-60 cells overexpressing p53-V272M mutant pretreated for 1 hr followed by culturing in fresh medium for 16 hrs by Western blot analysis", "assay_type": "functional, cell-based"}, "NB-4 [4]": {"system": "NB-4", "test": "Induction of granulocytic differentiation in human NB4 cells assessed as increase in CD11b expression at 9 uM incubated for 1 hrs followed by replacement with fresh culture medium for 48 hrs by flow cytometry analysis (reference value: 1.44%)", "assay_type": "functional"}, "[5]": {"target": "PML-RARalpha (Homo sapiens) (UniProt P10276+P29590)", "sequence (P10276 whole entry, looked up)": "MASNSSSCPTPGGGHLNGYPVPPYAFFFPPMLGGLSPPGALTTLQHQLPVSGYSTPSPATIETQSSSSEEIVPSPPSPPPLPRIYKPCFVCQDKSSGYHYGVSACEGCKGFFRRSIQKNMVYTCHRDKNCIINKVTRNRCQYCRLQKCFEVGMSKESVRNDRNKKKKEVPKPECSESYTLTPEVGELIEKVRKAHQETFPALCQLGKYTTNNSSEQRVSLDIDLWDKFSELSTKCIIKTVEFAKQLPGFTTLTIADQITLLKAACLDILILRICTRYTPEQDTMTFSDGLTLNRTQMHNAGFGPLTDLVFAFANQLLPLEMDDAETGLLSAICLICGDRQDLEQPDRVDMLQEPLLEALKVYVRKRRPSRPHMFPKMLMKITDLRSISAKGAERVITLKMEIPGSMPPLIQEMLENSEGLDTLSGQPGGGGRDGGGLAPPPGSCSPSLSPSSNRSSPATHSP", "sequence (P29590 whole entry, looked up)": "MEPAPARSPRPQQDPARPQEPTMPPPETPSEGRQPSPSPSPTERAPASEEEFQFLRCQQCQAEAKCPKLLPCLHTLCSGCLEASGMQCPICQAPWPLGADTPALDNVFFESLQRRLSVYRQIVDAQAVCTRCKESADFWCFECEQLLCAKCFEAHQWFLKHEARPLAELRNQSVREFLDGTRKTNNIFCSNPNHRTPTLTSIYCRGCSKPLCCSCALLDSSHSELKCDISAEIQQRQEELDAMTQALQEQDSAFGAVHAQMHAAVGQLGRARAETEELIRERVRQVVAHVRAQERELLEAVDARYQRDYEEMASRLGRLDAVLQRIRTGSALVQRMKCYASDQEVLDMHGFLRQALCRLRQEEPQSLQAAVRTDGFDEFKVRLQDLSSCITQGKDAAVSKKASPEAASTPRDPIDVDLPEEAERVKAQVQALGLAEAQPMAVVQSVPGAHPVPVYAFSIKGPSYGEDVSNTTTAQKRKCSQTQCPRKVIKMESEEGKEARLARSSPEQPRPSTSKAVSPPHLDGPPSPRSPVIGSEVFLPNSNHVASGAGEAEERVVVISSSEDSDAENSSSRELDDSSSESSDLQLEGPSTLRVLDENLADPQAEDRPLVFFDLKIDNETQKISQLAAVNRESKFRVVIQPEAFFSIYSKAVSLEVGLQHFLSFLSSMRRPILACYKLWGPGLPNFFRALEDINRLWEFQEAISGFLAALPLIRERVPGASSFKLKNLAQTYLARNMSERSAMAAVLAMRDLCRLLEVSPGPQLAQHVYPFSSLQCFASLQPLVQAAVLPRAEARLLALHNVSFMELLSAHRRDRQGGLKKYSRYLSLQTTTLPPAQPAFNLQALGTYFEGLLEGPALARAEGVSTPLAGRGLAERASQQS", "test": "Induction of PML/RARalpha degradation in human NB4 cells assessed as appearance of large PML speckles characteristic of normal nuclear bodies at 3 uM incubated for 1 hrs followed by replacement with fresh culture medium and measured after 0.5 to 24 hrs by immunofluorescence analysis", "assay_type": "cell-based"}, "[6]": {"test": "Drug uptake in human MDA-MB-231 cells assessed as fold increase in arsenic accumulation at 10 uM incubated for 10 mins by ICP-MS analysis", "assay_type": "ADME, cell-based", "conditions": "mda-mb-231, 10 min"}, "NB-4 [7]": {"system": "NB-4", "test": "Induction of granulocytic differentiation in human NB4 cells assessed as increase in CD11b expression at 3 uM incubated for 1 hrs followed by replacement with fresh culture medium for 48 hrs by flow cytometry analysis (reference value: 1.44%)", "assay_type": "functional"}, "U-937 [8]": {"system": "U-937", "test": "Inhibition of colony formation in human U-937 cells harboring p53-V272M mutant at 0.5 to 8 uM pretreated for 1 hr followed by culturing in fresh medium and measured on day 14 by crystal violet staining based assay", "assay_type": "functional, cell-based", "conditions": "dose 0.5-8 µM"}, "U-937 [9]": {"system": "U-937", "test": "Antitumor activity against GFP-tagged human U-937 cells harboring p53 V272M mutant xenografted in M-NSG mouse assessed as appearance of smaller and lighter spleen at 25 mg/kg, ip administered for 9 days starting from 7 days post inoculation and measured on day 2 and 6", "assay_type": "functional, organism-based", "conditions": "time 9.0 day"}, "[10]": {"test": "Drug uptake in human HepG2 cells assessed as arsenic localization in nucleus at 10 uM incubated for 1 hr by ICP-MS analysis", "assay_type": "ADME, cell-based", "conditions": "hepg2, 1 h"}, "U-937 [11]": {"system": "U-937", "test": "Induction of extrinsic apoptosis in human U-937 cells overexpressing p53-V272M mutant assessed as upregulation of FAS gene expression by RT-qPCR analysis", "assay_type": "functional, cell-based"}, "[12]": {"system": "Cellular tumor antigen p53 (Homo sapiens), P04637 [V272M]", "test": "Restoration of p53-V272M mutant transcriptional activity on PUMA promoter in human NCI-H1299 cells at 2.5 to 10 uM pretreated with chlorpromazine for 30 mins followed by compound addition for 10 mins and further incubation in fresh medium for 24 hrs by firefly/renilla based luciferase reporter assay", "assay_type": "cell-based", "conditions": "dose 2.5-10 µM"}}, "note": "The source made the active and inactive calls. The calls are words filed in the database; no cut-off is given here.", "data": [{"smiles": "CC(=O)OC[C@H]1O[C@@H](S[As]2SCCS2)[C@H](OC(C)=O)[C@@H](OC(C)=O)[C@@H]1OC(C)=O", "values": [{"measurement": "Activity", "setting": "U-937 [1]", "value": "Active"}, {"measurement": "Activity", "setting": "U-937 [2]", "value": "inactive"}, {"measurement": "fold change (FC)", "setting": "[3]", "value": 112}, {"measurement": "Activity", "setting": "HL-60", "value": "Active"}, {"measurement": "Activity", "setting": "NB-4 [4]", "value": 19, "unit": "%"}, {"measurement": "Activity", "setting": "[5]", "value": "Active"}, {"measurement": "fold change (FC)", "setting": "[6]", "value": 19}, {"measurement": "Activity", "setting": "NB-4 [7]", "value": 32.9, "unit": "%"}, {"measurement": "inhibition", "setting": "U-937 [8]", "value": "Active"}, {"measurement": "Activity", "setting": "U-937 [9]", "value": "Active"}, {"measurement": "Drug uptake", "setting": "[10]", "value": "Active"}, {"measurement": "Activity", "setting": "U-937 [11]", "value": "Active"}, {"measurement": "Activity", "setting": "[12]", "value": "inactive"}]}]}
